In US20260116920A1, “HUMAN TRANSFERRIN RECEPTOR BINDING PEPTIDE” (PEPTIDREAM INC., priority 2021, published 2026) one finds Kd data, which are given here for 14 molecules.

Starred links: 1 amine or outer side, 2 acyl side, 3 side chain; linkers in the order of their positions; H or OH if unused. Positions of bridges follow the written chain, without caps; N, C: chain ends. Non-standard residues stand in square brackets, D forms with d. Residues, ends and D or L forms follow the SMILES beside them. Groups on a side chain read outwards from the residue. *: point of attachment. Trp(1-CH2COOH) = N[C@@H](Cc1cn(CC(=O)O)c2ccccc12)C(=O)O; NH(CH2CH2O)8Me = COCCOCCOCCOCCOCCOCCOCCOCCN*; NMePhe(3-Cl) = CN[C@@H](Cc1cccc(Cl)c1)C(=O)O; Piperazinyl(4-CH2COOH) = O=C(O)CN1CCN(*)CC1; 3Pal(6-NH2) = Nc1ccc(C[C@H](N)C(=O)O)cn1; NMeY = CN[C@@H](Cc1ccc(O)cc1)C(=O)O; NH(CH2CH2O)4Me = COCCOCCOCCOCCN*; 4Pal = N[C@@H](Cc1ccncc1)C(=O)O; PEG4 = NCCOCCOCCOCCOCCC(=O)O; Carboxymethyl = O=C(O)C*; CO = O=C([*:1])[*:2] Where only a bound is given, the exact number is not on record here.

The target in one assay is T1, human transferrin receptor (hTfR) (Homo sapiens, UniProt P02786).
T1 construct: made in house
T1 sequence (P02786 89-760 limits assumed): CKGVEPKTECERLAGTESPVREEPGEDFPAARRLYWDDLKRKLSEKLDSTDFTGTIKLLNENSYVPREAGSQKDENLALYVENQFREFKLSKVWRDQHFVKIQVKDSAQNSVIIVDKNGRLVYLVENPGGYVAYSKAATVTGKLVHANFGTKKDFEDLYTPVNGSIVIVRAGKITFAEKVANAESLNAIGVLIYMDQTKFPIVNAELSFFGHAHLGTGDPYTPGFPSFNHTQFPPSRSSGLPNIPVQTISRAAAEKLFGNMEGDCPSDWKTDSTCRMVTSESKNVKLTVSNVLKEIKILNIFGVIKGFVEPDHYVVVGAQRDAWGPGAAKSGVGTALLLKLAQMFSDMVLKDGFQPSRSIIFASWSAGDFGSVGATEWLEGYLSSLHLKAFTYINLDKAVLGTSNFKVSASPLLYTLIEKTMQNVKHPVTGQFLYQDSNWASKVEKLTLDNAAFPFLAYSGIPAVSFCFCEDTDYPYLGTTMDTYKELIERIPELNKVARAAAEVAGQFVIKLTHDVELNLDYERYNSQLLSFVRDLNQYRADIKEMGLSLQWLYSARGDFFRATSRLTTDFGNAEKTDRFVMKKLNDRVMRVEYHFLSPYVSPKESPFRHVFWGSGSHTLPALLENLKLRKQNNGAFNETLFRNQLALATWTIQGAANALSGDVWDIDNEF
Nature of the assay: Evaluation of molecular interaction between transferrin receptor (hTfR) and peptide using surface plasmon resonance (SPR). The assay is classed as binding. The settings on record: KD class for binding to hTfR by SPR; peptide with the linker shown in the same line; 'low signal indicates no activity'; read-out: SPR. The gist of the method: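 Single-cycle SPR kinetics, KD by least-squares sensorgram fitting, with peptide series of 100, 50, 25, 10 and 5 nM. Running buffer: 10 mM HEPES pH 8.0, 150 mM NaCl, 0.05% Tween 20, 0.1% BSA, 1.0% DMSO. Surface: hTfR dimer covalently coupled (EDC/NHS) onto Ni-NTA chip.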
On the technique in general: In SPR one partner is held on a chip, and binding of the other changes the refractive index at the surface.
With `CC[C@H](C)[C@@H]1NC(=O)[C@H](Cc2ccc(OCC(=O)O)cc2)NC(=O)[C@H](Cc2ccc(O)cc2)NC(=O)[C@H](CC(N)=O)NC(=O)[C@H](Cc2cn(CC(=O)O)c3ccccc23)NC(=O)[C@H](C(C)C)NC(=O)[C@H](Cc2cccc(Cl)c2)N(C)C(=O)[C@H](C(C)C)NC(=O)[C@H](C)NC(=O)CSC[C@@H](C(=O)NCCOCCOCCOCCOCCC(N)=O)NC(=O)[C@H](Cc2ccc(O)cc2)N(C)C(=O)[C@H](Cc2ccccc2)NC(=O)[C@H](CCCNC(=N)N)NC(=O)[C@H](CCC(=O)NCCO)NC(=O)[C@H]([C@@H](C)CC)NC1=O` [894_0380], the Kd lay in the range of 1 to 100 nM. Consider `CC[C@H](C)[C@@H]1NC(=O)[C@H](Cc2ccc(OC)cc2)NC(=O)[C@H](Cc2ccc(N)nc2)NC(=O)[C@H](CC(N)=O)NC(=O)[C@H](Cc2cn(CC(=O)O)c3ccccc23)NC(=O)[C@H](C(C)C)NC(=O)[C@H](Cc2cccc(Cl)c2)N(C)C(=O)[C@H](C(C)C)NC(=O)[C@H](C)NC(=O)CSC[C@@H](C(=O)NCCOCCOCCOCCOCCC(N)=O)NC(=O)[C@H](Cc2ccc(O)cc2)N(C)C(=O)[C@H](Cc2ccccc2)NC(=O)[C@H](CCCNC(=N)N)NC(=O)[C@H](CCCNC(=N)N)NC(=O)[C@H]([C@@H](C)CC)NC1=O` [894_0332] ({CH2CO}-AV[NMePhe(3-Cl)]V[Trp(1-CH2COOH)]N[3Pal(6-NH2)]Y(Me)IIRRF[NMeY]C[PEG4]-NH2; thioether N-15), for which the Kd was 1 to 100 nM.

Still in this assay, the particulars now being: peptide with linker, surface plasmon resonance; read-out: SPR (KD class for binding to hTfR).
Turning to `CC[C@H](C)[C@@H]1NC(=O)[C@H](Cc2ccc(OCC(=O)O)cc2)NC(=O)[C@H](Cc2ccc(N)nc2)NC(=O)[C@H](CC(N)=O)NC(=O)[C@H](Cc2c[nH]c3ncccc23)NC(=O)[C@H](C(C)C)NC(=O)[C@H](Cc2cccc(Cl)c2)N(C)C(=O)[C@H](C(C)C)NC(=O)[C@H](C)NC(=O)CSC[C@@H](C(=O)NCCOCCOCCOCCOCCC(N)=O)NC(=O)[C@H](Cc2ccc(O)cc2)N(C)C(=O)[C@H](Cc2ccncc2)NC(=O)[C@H](CCCNC(=N)N)NC(=O)[C@H](CCC(=O)NCCOCCOCCOCCOCCOCCOCCOCCOC)NC(=O)[C@H]([C@@H](C)CC)NC1=O` [compound 224], the Kd was in the range of 1 to 100 nM.

The assay is the same for the next values; noted with them: surface plasmon resonance, binding to hTfR; KD class symbol; read-out: SPR (KD value).
Regarding `CC[C@H](C)[C@@H]1NC(=O)[C@H](Cc2ccc(OCC(=O)O)cc2)NC(=O)[C@H](Cc2ccc(O)cc2)NC(=O)[C@H](CC(N)=O)NC(=O)[C@H](Cc2c[nH]c3ccccc23)NC(=O)[C@H](C(C)C)NC(=O)[C@H](Cc2cccc(Cl)c2)N(C)C(=O)[C@H](C(C)C)NC(=O)[C@H](C)NC(=O)CSC[C@@H](C(=O)NCCOCCOCCOCCOCCC(N)=O)NC(=O)[C@H](Cc2ccc(O)cc2)N(C)C(=O)[C@H](Cc2ccccc2)NC(=O)[C@H](CCCNC(=N)N)NC(=O)[C@H](CCCNC(=N)N)NC(=O)[C@H]([C@@H](C)CC)NC1=O` [compound 109], the Kd is less than 1 nM.

For the molecule `CC[C@H](C)[C@@H]1NC(=O)[C@H](Cc2ccc(OCC(=O)O)cc2)NC(=O)[C@H](Cc2ccc(O)cc2)NC(=O)[C@H](CC(N)=O)NC(=O)[C@H](Cc2cn(CC(=O)O)c3ccccc23)NC(=O)[C@H](C(C)C)NC(=O)[C@H](Cc2cccc(Cl)c2)N(C)C(=O)[C@H](C(C)C)NC(=O)[C@H](C)NC(=O)CSC[C@@H](C(=O)NCCOCCOCCOCCOCCC(N)=O)NC(=O)[C@H](Cc2ccc(O)cc2)N(C)C(=O)[C@H](Cc2cccc(C(=O)O)c2)NC(=O)[C@H](CCCNC(=N)N)NC(=O)[C@H](CCCNC(=N)N)NC(=O)[C@H]([C@@H](C)CC)NC1=O` [compound 75], the Kd is 1 to 100 nM. Still for that read-out and setting: the figure for `CC[C@H](C)[C@@H]1NC(=O)[C@H](Cc2ccc(OC)cc2)NC(=O)[C@H](Cc2ccc(O)cc2)NC(=O)[C@H](CC(N)=O)NC(=O)[C@H](Cc2c[nH]c3ccccc23)NC(=O)[C@H](C(C)C)NC(=O)[C@H](Cc2cccc(Cl)c2)N(C)C(=O)[C@H](C(C)C)NC(=O)[C@H](C)NC(=O)CSC[C@@H](C(=O)NCCOCCOCCOCCOCCC(N)=O)NC(=O)[C@H](Cc2ccc(O)cc2)N(C)C(=O)[C@H](Cc2ccc(O)cc2)NC(=O)[C@H](CCCNC(=N)N)NC(=O)[C@H](CCCNC(=N)N)NC(=O)[C@H]([C@@H](C)CC)NC1=O` [compound 38] is less than 1 nM; for `CC[C@H](C)[C@@H]1NC(=O)[C@H](Cc2ccc(O)cc2)NC(=O)[C@H](Cc2ccc(O)cc2)NC(=O)[C@H](CC(N)=O)NC(=O)[C@H](Cc2c[nH]c3ccccc23)NC(=O)[C@H](C(C)C)NC(=O)[C@H](Cc2ccccc2)N(C)C(=O)[C@H](C(C)C)NC(=O)[C@H](C)NC(=O)CSC[C@@H](C(=O)NCCOCCOCCOCCOCCC(N)=O)NC(=O)[C@H](Cc2ccc(O)cc2)N(C)C(=O)[C@H](Cc2ccccc2)NC(=O)[C@H](CCCNC(=N)N)NC(=O)[C@H](CCCNC(=N)N)N(C)C(=O)[C@H]([C@@H](C)CC)NC1=O` [compound 16] it is 1 to 100 nM; for `CC[C@H](C)[C@@H]1NC(=O)[C@H](Cc2ccc(OCC(=O)O)cc2)NC(=O)[C@H](Cc2ccc(N)nc2)NC(=O)[C@H](CC(N)=O)NC(=O)[C@H](Cc2c[nH]c3ccccc23)NC(=O)[C@H](C(C)C)NC(=O)[C@H](Cc2cccc(Cl)c2)N(C)C(=O)[C@H](C(C)C)NC(=O)[C@H](C)NC(=O)CSC[C@@H](C(=O)NCCOCCOCCOCCOCCC(N)=O)NC(=O)[C@H](Cc2ccc(O)cc2)N(C)C(=O)[C@H](Cc2ccncc2)NC(=O)[C@H](CCC(=O)NCCOCCOCCOCCOCCOCCOCCOCCOC)NC(=O)[C@H](CCCNC(=N)N)NC(=O)[C@H]([C@@H](C)CC)NC1=O` [compound 100] ({CH2CO}-AV[NMePhe(3-Cl)]VWN[3Pal(6-NH2)]Y(Carboxymethyl)IIRE(NH(CH2CH2O)8Me)[4Pal][NMeY]C[PEG4]-NH2; thioether N-15) it is 1 to 100 nM. Same read-out and setting: with `CC[C@H](C)[C@@H]1NC(=O)[C@H](Cc2ccc(OCC(=O)O)cc2)NC(=O)[C@H](Cc2ccc(O)cc2)NC(=O)[C@H](CC(N)=O)NC(=O)[C@H](Cc2c[nH]c3ccccc23)NC(=O)[C@H](C(C)C)NC(=O)[C@H](Cc2cccc(Cl)c2)N(C)C(=O)[C@H](C(C)C)NC(=O)[C@H](C)NC(=O)CSC[C@@H](C(=O)NCCOCCOCCOCCOCCC(N)=O)NC(=O)[C@H](Cc2ccc(O)cc2)N(C)C(=O)[C@H](Cc2ccncc2)NC(=O)[C@H](CCC(=O)NCCOCCOCCOCCOCCOCCOCCOCCOC)NC(=O)[C@H](CCCNC(=N)N)NC(=O)[C@H]([C@@H](C)CC)NC1=O` [compound 96] ({CH2CO}-AV[NMePhe(3-Cl)]VWNYY(Carboxymethyl)IIRE(NH(CH2CH2O)8Me)[4Pal][NMeY]C[PEG4]-NH2; thioether N-15) the figure was 1 to 100 nM. On the same count and under the same terms, with `CC[C@H](C)[C@@H]1NC(=O)[C@H](Cc2ccc(OC)cc2)NC(=O)[C@H](Cc2ccc(O)cc2)NC(=O)[C@H](CC(N)=O)NC(=O)[C@H](Cc2c[nH]c3ccc(Cl)cc23)NC(=O)[C@H](C(C)C)NC(=O)[C@H](Cc2ccc(F)cc2)N(C)C(=O)[C@H](C(C)C)NC(=O)[C@H](C)NC(=O)CSC[C@@H](C(N)=O)NC(=O)[C@H](Cc2ccc(O)cc2)N(C)C(=O)[C@H](Cc2ccccc2)NC(=O)[C@H](CCCCNC(=O)CCOCCOCCOCCOC)NC(=O)[C@H](CCCNC(=N)N)N(C)C(=O)[C@H]([C@@H](C)CC)NC1=O` [compound 4] the figure was 1 to 100 nM; with `CC[C@H](C)[C@@H]1NC(=O)[C@H](Cc2ccc(OC)cc2)NC(=O)[C@H](Cc2ccc(O)cc2)NC(=O)[C@H](CC(N)=O)NC(=O)[C@H](Cc2c[nH]c3ccc(Cl)cc23)NC(=O)[C@H](C(C)C)NC(=O)[C@H](Cc2ccc(F)cc2)N(C)C(=O)[C@H](C(C)C)NC(=O)[C@H](C)NC(=O)CSC[C@@H](C(=O)NCCOCCOCCOCCOCCC(N)=O)NC(=O)[C@H](Cc2ccc(O)cc2)N(C)C(=O)[C@H](Cc2ccccc2)NC(=O)[C@H](CCCNC(=N)N)NC(=O)[C@H](CCCNC(=N)N)NC(=O)[C@H]([C@@H](C)CC)NC1=O` [compound 23], less than 1 nM.

With `CC[C@H](C)[C@@H]1NC(=O)[C@H](Cc2ccc(O)cc2)NC(=O)[C@H](Cc2ccc(O)cc2)NC(=O)[C@H](CC(N)=O)NC(=O)[C@H](Cc2c[nH]c3ccc(Cl)cc23)NC(=O)[C@H](C(C)C)NC(=O)[C@H](Cc2ccc(F)cc2)N(C)C(=O)[C@H](C(C)C)NC(=O)[C@H](C)NC(=O)CSC[C@@H](C(=O)NCCOCCOCCOCCOCCC(N)=O)NC(=O)[C@H](Cc2ccc(O)cc2)N(C)C(=O)[C@H](Cc2ccccc2)NC(=O)[C@@H](CCCNC(=N)N)NC(=O)[C@H](CCCNC(=N)N)NC(=O)[C@H]([C@@H](C)CC)NC1=O` [compound 24], the Kd lay within 1 to 100 nM. Still for that read-out and setting: with `CC[C@H](C)[C@@H]1NC(=O)[C@H](Cc2ccc(OCC(=O)O)cc2)NC(=O)[C@H](Cc2ccc(O)cc2)NC(=O)[C@H](CC(N)=O)NC(=O)[C@H](Cc2c[nH]c3ncccc23)NC(=O)[C@H](C(C)C)NC(=O)[C@H](Cc2cccc(Cl)c2)N(C)C(=O)[C@H](C(C)C)NC(=O)[C@H](C)NC(=O)CSC[C@@H](C(=O)NCCOCCOCCOCCOCCC(N)=O)NC(=O)[C@H](Cc2ccc(O)cc2)N(C)C(=O)[C@H](Cc2ccncc2)NC(=O)[C@H](CCCCN2CCOCC2)NC(=O)[C@H](CCC(N)=O)NC(=O)[C@H]([C@@H](C)CC)NC1=O` [compound 138] the figure was 1 to 100 nM; with `CC[C@H](C)[C@@H]1NC(=O)[C@H](Cc2ccc(OCC(=O)O)cc2)NC(=O)[C@H](Cc2ccc(O)cc2)NC(=O)[C@H](CC(N)=O)NC(=O)[C@H](Cc2c[nH]c3ccccc23)NC(=O)[C@H](C(C)C)NC(=O)[C@H](Cc2cccc(Cl)c2)N(C)C(=O)[C@H](C(C)C)NC(=O)[C@H](C)NC(=O)CSC[C@@H](C(=O)NCCOCCOCCOCCOCCC(N)=O)NC(=O)[C@H](Cc2ccc(O)cc2)N(C)C(=O)[C@H](Cc2ccccc2)NC(=O)[C@H](CCCCNC(=O)N2CCN(CC(=O)O)CC2)NC(=O)[C@H](CCC(=O)NCCOCCOCCOCCOC)NC(=O)[C@H]([C@@H](C)CC)NC1=O` [compound 116] ({CH2CO}-AV[NMePhe(3-Cl)]VWNYY(Carboxymethyl)IIE(NH(CH2CH2O)4Me)K([CO-Piperazinyl(4-CH2COOH)])F[NMeY]C[PEG4]-NH2; thioether N-15), 1 to 100 nM.
